The nature of one series: Pharmacokinetics in mice. In kind it is in vivo.
Series [1] can be described thus: Solubility in aqueous buffer. In kind it is physicochemical.
The conditions of series [2]: mice, cited from earlier work.

Read-outs that look alike come from different tables or passages of the source. Marks after values point to notes of the source that are not given here.

Turning to `CC(C)(C)c1ccc(CC2(N)CCN(c3ncnc4[nH]ccc34)CC2)cc1` [Compound 10, 4-(4-tert-Butylbenzyl)-1-(7H-pyrrolo[2,3-d]pyrimidin-4-yl)piperidin-4-amine], the Foral in “Pharmacokinetics in mice” (oral administration of same dose (10 mg kg^−1)) is <1 ^c %. Moreover, the “drug levels following oral dosing” value in the series “Pharmacokinetics in mice” (oral dosing 10 mg/kg) is recorded as “no measurable drug levels”.

With `NC1(Cc2ccc(Cl)cc2)CCN(c2ncnc3[nH]ccc23)CC1` [Compound 2, 4-(4-chlorobenzyl)-1-(7H-pyrrolo[2,3-d]pyrimidin-4-yl)piperidin-4-amine], the “solubility (S) at pH 7” value in series [1] is given as “negligible solubility”. The Foral in series [2] (oral administration of same dose (25 mg kg^−1)) is recorded as 8.5%. In series [2] (plasma, IV dose 25 mg kg^−1), the Clp was 0.33 L/h.

Source of the values: article PMC2832868 (Journal of Medicinal Chemistry, 2010).
